Columns and labels:
[1] = biological target: influenza A RNA-dependent RNA polymerase (Influenza A virus, UniProt P03428+P03431+P03433); test: cell-based
[2] = tested on: constitutive gene expression; test: Counter screen: separate reporter system with cell death-activated reporter construct (constitutive gene expression); conditions: for observed toxicity or efficacy in either assay tested: antiviral and counterscreen assay; for toxicity in antiviral and counterscreen assays: at 50uM, both antiviral and counterscreen assay

CCc1c(C)nc2cc(-c3ccc(OC)c(OC)c3)nn2c1NCc1cc(OC)ccc1OC [A0526, N-(2,5-dimethoxybenzyl)-2-(3,4-dimethoxyphenyl)-6-ethyl-5-methylpyrazolo[1,5-a]pyrimidin-7-amine]
IC50 [1]: > 50 µM
observed toxicity or efficacy in either assay tested [2]: >50 µM (no observed toxicity or efficacy in either assay tested)

Cc1cc(NC(CO)C(O)c2ccccc2)n2nc(-c3cccc(F)c3)cc2n1 (stereo not drawn) [A0531, 2-(2-(3-fluorophenyl)-5-methylpyrazolo[1,5-a]pyrimidin-7-ylamino)-1-phenylpropane-1,3-diol]
IC50 [1]: > 50 µM
observed toxicity or efficacy in either assay tested [2]: >50 µM (no observed toxicity or efficacy in either assay tested)

CCc1c(C)nc2cc(-c3ccc(OC)c(OC)c3)nn2c1NCCc1ccc(OC)c(OC)c1 [A0438, N-(3,4-dimethoxyphenethyl)-2-(3,4-dimethoxyphenyl)-6-ethyl-5-methylpyrazolo[1,5-a]pyrimidin-7-amine]
IC50 [1]: > 10 µM
toxicity in antiviral and counterscreen assays [2]: >10uM (toxic to both antiviral and counterscreen at 50uM)

COc1ccc(-c2cc3nc4c(c(NCCc5cccnc5)n3n2)CCC4)cc1OC [A0444, 2-(3,4-dimethoxyphenyl)-N-(2-(pyridin-3-yl)ethyl)-6,7-dihydro-5H-cyclopenta[d]pyrazolo[1,5-a]pyrimidin-8-amine]
IC50 [1]: > 10 µM
toxicity in antiviral and counterscreen assays [2]: >10uM (toxic to both antiviral and counterscreen at 50uM)

Fc1ccc(-c2cc3nc4c(c(NCCc5ccccn5)n3n2)CCCC4)cc1 [A0441, 2-(4-fluorophenyl)-N-(2-(pyridin-2-yl)ethyl)-5,6,7,8-tetrahydropyrazolo[5,1-b]quinazolin-9-amine]
IC50 [1]: > 10 µM
toxicity in antiviral and counterscreen assays [2]: >10uM (toxic to both antiviral and counterscreen at 50uM)

CCc1c(C)nc2cc(-c3cc(C)on3)nn2c1NCCc1ccccn1 [A0445, 6-ethyl-5-methyl-2-(5-methylisoxazol-3-yl)-N-(2-(pyridin-2-yl)ethyl)pyrazolo[1,5-a]pyrimidin-7-amine]
IC50 [1]: > 50 µM
observed toxicity or efficacy in either assay tested [2]: >50 µM (no observed toxicity or efficacy in either assay tested)

COc1ccc(-c2cc3nc(C)cc(NCc4ccc5c(c4)OCO5)n3n2)cc1 [A0530, N-(benzo[d][1,3]dioxol-5-ylmethyl)-2-(4-methoxyphenyl)-5-methylpyrazolo[1,5-a]pyrimidin-7-amine]
IC50 [1]: > 50 µM
observed toxicity or efficacy in either assay tested [2]: >50 µM (no observed toxicity or efficacy in either assay tested)

COc1ccc(-c2cc3nc4c(c(NCc5ccccc5F)n3n2)CCCC4)cc1 [A0529, N-(2-fluorobenzyl)-2-(4-methoxyphenyl)-5,6,7,8-tetrahydropyrazolo[5,1-b]quinazolin-9-amine]
IC50 [1]: > 50 µM
observed toxicity or efficacy in either assay tested [2]: >50 µM (no observed toxicity or efficacy in either assay tested)

Clc1ccc(-c2cc3nc4c(c(NCCc5ccccn5)n3n2)CCCC4)cc1 [A0442, 2-(4-chlorophenyl)-N-(2-(pyridin-2-yl)ethyl)-5,6,7,8-tetrahydropyrazolo[5,1-b]quinazolin-9-amine]
IC50 [1]: > 10 µM
toxicity in antiviral and counterscreen assays [2]: >10uM (toxic to both antiviral and counterscreen at 50uM)

COc1ccc(-c2c(C)nn3c(N4CCc5ccccc5C4)cc(C)nc23)cc1OC [A0550, 2-(3-(3,4-dimethoxyphenyl)-2,5-dimethylpyrazolo[1,5-a]pyrimidin-7-yl)-1,2,3,4-tetrahydroisoquinoline]
IC50 [1]: > 50 µM
observed toxicity or efficacy in either assay tested [2]: >50 µM (no observed toxicity or efficacy in either assay tested)

COc1ccc(-c2cc3c(=O)[nH]nc(SCc4ccccc4Cl)n3n2)cc1OC [A0553, 7-(2-chlorobenzylthio)-2-(3,4-dimethoxyphenyl)pyrazolo[1,5-d][1,2,4]triazin-4(5H)-one]
IC50 [1]: > 50 µM
observed toxicity or efficacy in either assay tested [2]: >50 µM (no observed toxicity or efficacy in either assay tested)

CCc1c(C)nc2cc(-c3ccc(F)cc3)nn2c1NCCc1ccccn1 [A0436, 6-ethyl-2-(4-fluorophenyl)-5-methyl-N-(2-(pyridin-2-yl)ethyl)pyrazolo[1,5-a]pyrimidin-7-amine]
IC50 [1]: > 10 µM
toxicity in antiviral and counterscreen assays [2]: >10uM (toxic to both antiviral and counterscreen at 50uM)

CCc1c(C)nc2cc(-c3ccc(OC)c(OC)c3)nn2c1NCCc1ccc(F)cc1 [A0440, 2-(3,4-dimethoxyphenyl)-6-ethyl-N-(4-fluorophenethyl)-5-methylpyrazolo[1,5-a]pyrimidin-7-amine]
IC50 [1]: > 50 µM
observed toxicity or efficacy in either assay tested [2]: >50 µM (no observed toxicity or efficacy in either assay tested)

Cc1ccc(-c2cc3nc4c(c(NCCc5ccccn5)n3n2)CCC4)cc1 [A0437, N-(2-(pyridin-2-yl)ethyl)-2-p-tolyl-6,7-dihydro-5H-cyclopenta[d]pyrazolo[1,5-a]pyrimidin-8-amine]
IC50 [1]: > 50 µM
observed toxicity or efficacy in either assay tested [2]: >50 µM (no observed toxicity or efficacy in either assay tested)

Cc1cc(NCC(O)c2cccc(O)c2)n2nc(-c3cccc(F)c3)cc2n1 (stereo not drawn) [A0532, 3-(2-(2-(3-fluorophenyl)-5-methylpyrazolo[1,5-a]pyrimidin-7-ylamino)-1-hydroxyethyl)phenol]
IC50 [1]: > 50 µM
observed toxicity or efficacy in either assay tested [2]: >50 µM (no observed toxicity or efficacy in either assay tested)

COc1ccc(-c2cc3nc(C)c(C)c(N4CCCC4)n3n2)cc1OC [A0443, 2-(3,4-dimethoxyphenyl)-5,6-dimethyl-7-(pyrrolidin-1-yl)pyrazolo[1,5-a]pyrimidine]
IC50 [1]: > 50 µM
observed toxicity or efficacy in either assay tested [2]: >50 µM (no observed toxicity or efficacy in either assay tested)

CCOc1ccc(-c2cc3c(SCc4cccc(C)c4)nccn3n2)cc1 [A0552, 2-(4-ethoxyphenyl)-4-(3-methylbenzylthio)pyrazolo[1,5-a]pyrazine]
IC50 [1]: > 50 µM
observed toxicity or efficacy in either assay tested [2]: >50 µM (no observed toxicity or efficacy in either assay tested)

CCc1c(C)nc2cc(-c3cc(OC)cc(OC)c3)nn2c1NCCc1ccccc1 [A0527, 2-(3,5-dimethoxyphenyl)-6-ethyl-5-methyl-N-phenethylpyrazolo[1,5-a]pyrimidin-7-amine]
IC50 [1]: > 50 µM
observed toxicity or efficacy in either assay tested [2]: >50 µM (no observed toxicity or efficacy in either assay tested)

COc1ccc(-c2c(C)nn3c(NCC(C)c4ccccc4)cc(C)nc23)cc1OC (stereo not drawn) [A0549, 3-(3,4-dimethoxyphenyl)-2,5-dimethyl-N-(2-phenylpropyl)pyrazolo[1,5-a]pyrimidin-7-amine]
IC50 [1]: > 50 µM
observed toxicity or efficacy in either assay tested [2]: >50 µM (no observed toxicity or efficacy in either assay tested)

COc1ccc(-c2cc3nccc(NCc4ccccc4OC)n3n2)cc1 [A0547, N-(2-methoxybenzyl)-2-(4-methoxyphenyl)pyrazolo[1,5-a]pyrimidin-7-amine]
IC50 [1]: > 50 µM
observed toxicity or efficacy in either assay tested [2]: >50 µM (no observed toxicity or efficacy in either assay tested)

COc1cc(OC)cc(-c2cc3nc(C)cc(NCC(C)c4ccccc4)n3n2)c1 (stereo not drawn) [A0525, 2-(3,5-dimethoxyphenyl)-5-methyl-N-(2-phenylpropyl)pyrazolo[1,5-a]pyrimidin-7-amine]
IC50 [1]: > 50 µM
observed toxicity or efficacy in either assay tested [2]: >50 µM (no observed toxicity or efficacy in either assay tested)
